Our source for the GI50 values is patent US10414778B2, “Methods for treatment of resistant cancer” (New Mexico Tech University Research Park Corporation, priority 2016, dated 2019).

Where two headings read alike, the source gives them in different places.

The test system of one test is MCF-7 cells. Nature of the test: MTT in vitro growth inhibition assay, MCF-7. The class given is cell-based, human. The following applies: two independent experiments. On the procedure: (§1) Human cancer cell lines were obtained from the American Type Culture Collection (ATCC, Manassas, Va., USA), the European Collection of Cell Culture (ECACC, Salisbury, UK), and the Deutsche Sammlung von Mikroorganismen und Zellkulturen (DSMZ, Braunschweig, Germany). Human cervical adenocarcinoma HeLa cells were cultured in DMEM supplemented with 10% fetal bovine serum (FBS). Human mammary carcinoma MCF-7 cells were cultured in RPMI supplemented with 10% FBS. The U87 cells (ATCC HTB-14) were cultured in DMEM culture medium, while the A549 cells (DSMZ ACC107) were cultured in RPMI culture medium supplemented with 10% heat-inactivated FBS. The GBM Hs683 (ATCC HTB-138) and the T98G (ATCC CRL-1690) cell lines were cultivated in DMEM supplemented with 10% FBS. The GBM U251 cells (ECACC code 09063001) were cultured in 10% MEM. The human uterine sarcoma MES-SA and MES-SA/Dx5 cells were cultured in RPMI-1640 medium supplemented with 10% FBS with MES SA/Dx5 maintained in the presence of 500 nM Doxorubicin (Sigma™). The U373 glioblastoma cells (ECACC 08061901) were cultured in RPMI culture medium supplemented with 10% heat-inactivated FBS.
(§2) Spirodienones 4a-m were subjected to in vitro growth inhibition 3-(4,5-dimethylthiazol-2-yl)-2,5-diphenyltetrazolium bromide (MTT) assays against two cell lines, human HeLa cervical and MCF-7 breast adenocarcinomas.
(§3) All compounds were dissolved in DMSO at a concentration of either 100 mM or 50 mM prior to cell treatment. The cells were trypsinized and seeded at various cell concentrations depending on the cell type. The cells were grown for 24 h to 72 h, treated with compounds at concentrations ranging from 0.001 to 100 μM, and incubated for 48, 72, or 96 h in 100 or 200 μL media depending on the cell line used. Cells treated with 0.1% DMSO were used as a negative control, and cells treated with 1 μM phenyl arsine oxide (PAO) were used as a positive control.
(§4) To determine the activities of the compounds of the invention toward cancer cells, cell lines treated with different compounds were subjected to an in vitro MTT growth assay using human cervical cancer (HeLa) and human adenocarcinoma (MCF-7) cell lines. The MTT growth assay is a colorimetric assay that measures the metabolic activity of cells via reduction of 3-(4,5-dimethylthiazol-2-yl)-2,5-diphenyltetrazolium bromide (MTT). The reduction of MTT occurs in metabolically-active cells and is characterized by a purple color, which can be quantified via spectrophotometry. A higher absorbance reading indicates a metabolically-active cell, while a low absorbance reading indicates low metabolic activity due to, for example, inhibition of cellular proliferation or cell death.
(§5) The values in TABLE 4 are the mean and standard deviation calculated from two independent experiments, which were performed in 4 replicates.

In another test the test system is HeLa cells. Nature of the test: MTT in vitro growth inhibition assay, HeLa. The class given is cell-based, human. The note with it: two independent experiments. On the procedure:
as §1, §2, §3, §4, §5

[1] abbreviates: Homo sapiens, MCF7, MCF-7, 48 h treatment, ± SD, read-out: cell viability GI50, MCF-7.
[2] abbreviates: Homo sapiens, HeLa, 48 h treatment, ± SD, read-out: cell viability GI50, HeLa.
Setting [3] is: Homo sapiens, MCF7, Table 4, 48-hour treatment, mean and standard deviation, read-out: MCF-7 Cell Viability GI50.
Where [4] appears, read: Homo sapiens, HeLa, Table 4, 48-hour treatment, mean and standard deviation, read-out: HeLa Cell Viability GI50.

As a reminder, the GI50 is the concentration that inhibits growth by half. Consider `O=C1C=CC2(C=C1)CCN(C(=O)C(F)(F)F)Cc1cc3c(cc12)OCO3` [Compound 4a], for which the GI50 with MCF-7 cells (setting [1]) is 30 ± 2 µM; in the test on HeLa cells (setting [2]), 24 ± 2 µM.
Taken in the same sequence, the figures for `COc1cc2c(cc1OC)C1(C=CC(=O)C=C1)CCN(C(=O)C(F)(F)F)C2` [Compound 4b] were > 100 µM and 83 ± 5 µM.
For the compound `O=C1C=CC2(C=C1)CCN(C(=O)C(F)(F)F)Cc1cc3c(cc12)OCCO3` [Compound 4c], the values for the GI50 in the test with MCF-7 cells (setting [1]) and in the test with HeLa cells (setting [2]) were 34 ± 12 µM and 21 ± 1 µM, respectively.
The like results for `O=C1C=CC2(C=C1)CCN(C(=O)C(F)(F)F)Cc1c2ccc2c1OCO2` [Compound 4d] were, in that order, > 100 µM and > 100 µM.
For `COc1cc2c(cc1OCc1ccccc1)CN(C(=O)C(F)(F)F)CCC21C=CC(=O)C=C1` [Compound 4e], the figures for the GI50 in the test on MCF-7 cells (setting [1]) and in the test with HeLa cells (setting [2]) were 48 ± 3 µM and 38 ± 2 µM, respectively.
Consider `COc1cc2c(cc1OCc1ccccc1)C1(C=CC(=O)C=C1)CCN(C(=O)C(F)(F)F)C2` [Compound 4f], for which the GI50 with MCF-7 cells (setting [1]) stood at 34 ± 2 µM; with HeLa cells (setting [2]) it was 34 ± 4 µM.
Consider `O=C1C=CC2(C=C1)CCN(C(=O)C(F)(F)F)Cc1cc(OCc3ccccc3)c(OCc3ccccc3)cc12` [Compound 4g], for which the GI50 in the test with MCF-7 cells (setting [1]) was 25 ± 2 µM; in the test on HeLa cells (setting [2]) it was 17 ± 1 µM.
Regarding `O=C1C=CC2(C=C1)CCN(C(=O)C(F)(F)F)Cc1cc(OCc3ccccc3)ccc12` [Compound 4h], the GI50 was determined as 40 ± 1 µM with MCF-7 cells (setting [1]) and 16 µM with HeLa cells (setting [2]).
On to `O=C1C=CC2(C=C1)CCN(C(=O)C(F)(F)F)Cc1cccc(OCc3ccccc3)c12` [Compound 4i], for which the figures for the GI50 in the test on MCF-7 cells (setting [1]) and with HeLa cells (setting [2]) were 14 ± 2 µM and 11 ± 2 µM, respectively.
As for `O=C1C=C[C@]23CC[N@](Cc4cc5c(cc42)OCO5)[C@H]3C1` [Compound 5a], the GI50 came to 23.9 ± 0.7 µM in the test on MCF-7 cells (setting [3]) and 25.4 ± 3 µM in the test with HeLa cells (setting [4]).
Regarding `COc1cc2c(cc1OC)[C@@]13C=CC(=O)C[C@@H]1[N@](CC3)C2` [Compound 5b], the GI50 in the test with MCF-7 cells (setting [3]) was > 100 µM; in the test on HeLa cells (setting [4]), 63.5 ± 2.7 µM.
`O=C1C=C[C@]23CC[N@](Cc4cc5c(cc42)OCCO5)[C@H]3C1` [Compound 5c]: the GI50 with MCF-7 cells (setting [3]) is 18.6 ± 0.8 µM; in the test on HeLa cells (setting [4]) it was 12.7 ± 2.3 µM.
The like results for `O=C1C=C[C@]23CC[N@](Cc4c2ccc2c4OCO2)[C@H]3C1` [Compound 5d] were, in that order, 72.5 ± 2.5 µM and 60.5 ± 4.7 µM.
On to `COc1cc2c(cc1OCc1ccccc1)C[N@@]1CC[C@@]23C=CC(=O)C[C@H]13` [Compound 5e], for which the GI50 in the test on MCF-7 cells (setting [3]) turned out to be 14.5 ± 1 µM; in the test on HeLa cells (setting [4]) it was 11.8 ± 0.5 µM.
Taken in the same sequence, the figures for `COc1cc2c(cc1OCc1ccccc1)[C@@]13C=CC(=O)C[C@@H]1[N@](CC3)C2` [Compound 5f] were 16.8 ± 0.2 µM and 16.7 ± 1.8 µM.
The like results for `O=C1C=C[C@]23CC[N@](Cc4cc(OCc5ccccc5)ccc42)[C@H]3C1` [Compound 5h] were, in that order, 14.4 ± 1 µM and 7.9 ± 0.3 µM.
Take `O=C1C=C[C@]23CC[N@](Cc4cccc(OCc5ccccc5)c42)[C@H]3C1` [Compound 5i]: the GI50 in the test with MCF-7 cells (setting [3]) came out at 11 µM; with HeLa cells (setting [4]), 7.37 ± 0.9 µM.
Take `O=C1C=C[C@]23CC[N@](Cc4cscc42)[C@H]3C1` [Compound 5k]: the GI50 with MCF-7 cells (setting [3]) was determined as 43.6 ± 2.1 µM; with HeLa cells (setting [4]) it was 25.4 ± 5.2 µM.
With `CO[C@@H]1C=C[C@@]23c4cc5c(cc4CN(C[C@@H]2O)[C@H]3C1)OCO5` [Haemanthamine, reference compound], the GI50 with MCF-7 cells (Table 4, 48-hour treatment, mean and standard deviation, read-out: MCF-7 Cell Viability GI50) was 2.1 ± 0.2 µM; with HeLa cells (Table 4, 48-hour treatment, mean and standard deviation, read-out: HeLa Cell Viability GI50), 1.8 ± 0.3 µM.
